Starred links: 1 amine or outer side, 2 acyl side, 3 side chain; linkers in the order of their positions; H or OH if unused. Positions of bridges follow the written chain, without caps; N, C: chain ends. Non-standard residues stand in square brackets, D forms with d. Residues, ends and D or L forms follow the SMILES beside them. *: point of attachment. NMeF = CN[C@@H](Cc1ccccc1)C(=O)O; NMeGABA = CN(CCCC(=O)[*:2])[*:1]; NMeI = CC[C@H](C)[C@H](NC)C(=O)O; NMeT = CN[C@H](C(=O)O)[C@@H](C)O; hPhe = N[C@@H](CCc1ccccc1)C(=O)O; NMeβAla = CN(CCC(=O)[*:2])[*:1]; NMeL = CN[C@@H](CC(C)C)C(=O)O; dNMeV = CN[C@@H](C(=O)O)C(C)C; NMeV = CN[C@H](C(=O)O)C(C)C; d(β3hA) = C[C@@H](N)CC(=O)O; NMeAbu = CC[C@H](NC)C(=O)O; NMeA = CN[C@@H](C)C(=O)O; Piperidide = C1CCN(*)CC1; Abu = CC[C@H](N)C(=O)O; NBuGly = CCCCNCC(=O)O; Sar = CNCC(=O)O; tBu = CC(C)(C)*
Legend:
Caco-2 cells = test: Membrane permeability test using Caco-2 cells with preincubation; assay type: in vitro ADME; settings: Caco-2 cells, preincubation 20 to 24 hours; apical FaSSIF/HBSS 1% DMSO pH 6.0, basal HBSS 4% BSA pH 7.4; basal sample at 180 minutes
[1] = as above; assay type: in vitro ADME; settings: Caco-2; preincubation 20 to 24 hours; Apical FaSSIF/HBSS pH 6.0, Basal HBSS 4% BSA pH 7.4; 180 minutes; read-out: Caco2 Papp
[2] = Metabolic stability test: liver microsomal stability assay; assay type: in vitro ADME, mouse; settings: mouse liver microsomes 0.5 mg protein/mL, compound 1 µM; for microsomal CLint at 1 µM: male, pH 7.4, presence of NADPH, read-out: Mouse Hepatic Microsome CLh,int NADPH(+); for Mouse Hepatic Microsome CLh,int NADPH(-): absence of NADPH

Row | Caco2 Papp (10^-6 cm/sec) (Caco-2 cells) | Papp A→B [1] | microsomal CLint at 1 µM [2] | Mouse Hepatic Microsome CLh,int NADPH(-) [2] | SMILES
1 | 0.88 10^-6 cm/sec | 0.88 ×10⁻⁶ cm/s | 23.3 µL/min/mg | 18.2 µL/min/mg Protein | CC[C@H]1C(=O)N(C)CC(=O)N[C@@H]([C@@H](C)O)C(=O)N(C)[C@@H](CC(C)C)C(=O)N[C@@H](CC(C)C)C(=O)N(C)[C@@H](Cc2ccccc2)C(=O)N(C)[C@@H](C(C)C)C(=O)N2CCC[C@H]2C(=O)N(C)[C@@H](C)C(=O)N(C)[C@@H](C(C)C)C(=O)N[C@H](C(=O)N2CCCCC2)CC(=O)N(C)[C@@H](CC(C)C)C(=O)N(C)[C@@H](Cc2ccccc2)C(=O)N1C [pd126] ([NMeL][NMeF][NMeAbu][Sar]T[NMeL]L[NMeF][NMeV]P[NMeA][NMeV]D-Piperidide; lactam N-13)
2 | 0.36 10^-6 cm/sec | 0.36 ×10⁻⁶ cm/s | 41.6 µL/min/mg | 28.0 µL/min/mg Protein | CC[C@H](C)[C@@H]1NC(=O)[C@H](CC(C)C)N(C)C(=O)[C@H](CC(C)C)NC(=O)[C@H](C)N(C)C(=O)C[C@@H](C)NC(=O)[C@H](CC(C)C)NC(=O)[C@H](CC(C)C)N(C)C(=O)CN(C)C(=O)[C@H](C(C)C)NC(=O)[C@H]([C@@H](C)CC)N(C)C(=O)[C@H](CC(C)C)N(C)C(=O)[C@H](C)NC(=O)[C@H](Cc2ccccc2)N(C)C1=O [pd127] (cyclo(A[NMeL][NMeI]V[Sar][NMeL]L[d(β3hA)][NMeA]L[NMeL]I[NMeF]))
3 | 0.05 10^-6 cm/sec | 0.05 ×10⁻⁶ cm/s | 18 µL/min/mg | 11.3 µL/min/mg Protein | CC[C@@H]1NC(=O)CN(C)C(=O)[C@H]([C@@H](C)O)NC(=O)[C@H](CC(C)C)N(C)C(=O)[C@H](C(C)C)NC(=O)[C@H](Cc2ccccc2)N(C)C(=O)[C@H](C)N(C)C(=O)[C@@H](C)NC(=O)C[C@@H](C)NC(=O)[C@H](C(C)C)N(C)C(=O)[C@H](Cc2ccccc2)N(C)C(=O)[C@H](COC(C)(C)C)NC(=O)[C@H](CC(C)C)N(C)C1=O [pd128] (cyclo([Abu][NMeL]S(tBu)[NMeF][NMeV][d(β3hA)][dA][NMeA][NMeF]V[NMeL]T[Sar]))
4 | 0.71 10^-6 cm/sec | 0.71 ×10⁻⁶ cm/s | 76.5 µL/min/mg | 19.7 µL/min/mg Protein | CC[C@@H]1NC(=O)[C@H](CC(C)C)N(C)C(=O)[C@H]([C@@H](C)CC)NC(=O)CN(C)C(=O)C[C@@H](C)NC(=O)[C@H](C(C)C)N(C)C(=O)[C@H](COC(C)(C)C)NC(=O)[C@H](CC(C)C)N(C)C(=O)[C@H](Cc2ccccc2)N(C)C(=O)[C@H](CC(C)C)NC(=O)CN(C)C(=O)[C@H]([C@@H](C)O)NC(=O)[C@H](CC(C)C)N(C)C1=O [pd129] (cyclo([Abu][NMeL]T[Sar]L[NMeF][NMeL]S(tBu)[NMeV][d(β3hA)][Sar]I[NMeL]))

The remaining lines, values behind:

Row | SMILES | Caco2 Papp (10^-6 cm/sec) (Caco-2 cells) | Papp A→B [1] | microsomal CLint at 1 µM [2] | Mouse Hepatic Microsome CLh,int NADPH(-) [2]
5 | CC[C@H](C)[C@H]1C(=O)N[C@@H]([C@@H](C)O)C(=O)N(C)CC(=O)N(C)[C@@H](CC(C)C)C(=O)N(C)[C@@H](Cc2ccccc2)C(=O)N[C@H](C(=O)N2CCCCC2)CC(=O)N(C)[C@@H](C)C(=O)N[C@@H](CC(C)C)C(=O)N(C)[C@@H](Cc2ccccc2)C(=O)N(C)CCC(=O)N(C)[C@@H](CC(C)C)C(=O)N(C)CCC(=O)N[C@@H](CC(C)C)C(=O)N1C [pd120] ([NMeA]L[NMeF][NMeβAla][NMeL][NMeβAla]L[NMeI]T[Sar][NMeL][NMeF]D-Piperidide; lactam N-13) | 0.69 10^-6 cm/sec | 0.69 ×10⁻⁶ cm/s | 25.8 µL/min/mg | 18.4 µL/min/mg Protein
6 | CC[C@H](C)[C@@H]1NC(=O)[C@H](C)N(C)C(=O)C[C@@H](C(=O)N2CCCCC2)NC(=O)[C@H](CC)N(C)C(=O)[C@H](COC(C)(C)C)NC(=O)[C@H](CC(C)C)N(C)C(=O)[C@H](C)N(C)C(=O)[C@H](CC(C)C)N(C)C(=O)[C@H](Cc2ccccc2)N(C)C(=O)CN(C)C(=O)[C@H]([C@@H](C)O)NC(=O)[C@H](CC(C)C)N(C)C(=O)[C@H](Cc2ccccc2)N(C)C1=O [pd121] ([NMeA]I[NMeF][NMeL]T[Sar][NMeF][NMeL][NMeA][NMeL]S(tBu)[NMeAbu]D-Piperidide; lactam N-13) | 1.02 10^-6 cm/sec | 1.02 ×10⁻⁶ cm/s | 21.9 µL/min/mg | 18.2 µL/min/mg Protein
7 | CC[C@@H]1NC(=O)[C@@H]2CCCN2C(=O)[C@H](C(C)C)NC(=O)[C@H](Cc2ccccc2)N(C)C(=O)[C@H](C)N(C)C(=O)[C@H](CC(C)C)N(C)C(=O)[C@H]([C@@H](C)O)N(C)C(=O)[C@H](CC(C)C)N(C)C(=O)[C@H](CC)NC(=O)[C@H](Cc2ccccc2)N(C)C(=O)CN(C)C(=O)C[C@@H](C(=O)N2CCCCC2)NC(=O)[C@H](C(C)C)N(C)C1=O [pd122] ([Sar][NMeF][Abu][NMeL][NMeT][NMeL][NMeA][NMeF]VP[Abu][NMeV]D-Piperidide; lactam N-13) | 0.06 10^-6 cm/sec | 0.06 ×10⁻⁶ cm/s | 11.1 µL/min/mg | 9.6 µL/min/mg Protein
8 | CCCCN1CC(=O)N(C)[C@@H](CC(C)C)C(=O)N[C@@H](COC(C)(C)C)C(=O)N(C)[C@@H](Cc2ccccc2)C(=O)N(C)[C@@H](C)C(=O)N(C)[C@@H](C(C)C)C(=O)N[C@H](C(=O)N2CCCCC2)CC(=O)N(C)[C@H](C(C)C)C(=O)N(C)[C@@H](Cc2ccccc2)C(=O)N2CCC[C@H]2C(=O)N(C)[C@@H](C(C)C)C(=O)N(C)[C@@H](CC(C)C)C(=O)N[C@@H]([C@@H](C)O)C1=O [pd123] ([dNMeV][NMeF]P[NMeV][NMeL]T[NBuGly][NMeL]S(tBu)[NMeF][NMeA][NMeV]D-Piperidide; lactam N-13) | 0.56 10^-6 cm/sec | 0.56 ×10⁻⁶ cm/s | 31 µL/min/mg | 36.0 µL/min/mg Protein
9 | CC[C@H](C)[C@H]1C(=O)N2CCC[C@H]2C(=O)N(C)[C@@H](C(C)C)C(=O)N(C)[C@@H](Cc2ccccc2)C(=O)N(C)[C@@H](C)C(=O)N(C)[C@@H](CC(C)C)C(=O)N[C@@H]([C@@H](C)O)C(=O)N(C)[C@@H](C)C(=O)N[C@@H](CCc2ccccc2)C(=O)N(C)[C@@H](CC(C)C)C(=O)N[C@H](C(=O)N2CCCCC2)CC(=O)N(C)CCCC(=O)N(C)[C@@H](CC(C)C)C(=O)N1C [pd124] ([NMeGABA][NMeL][NMeI]P[NMeV][NMeF][NMeA][NMeL]T[NMeA][hPhe][NMeL]D-Piperidide; lactam N-13) | 0.13 10^-6 cm/sec | 0.13 ×10⁻⁶ cm/s | 16.9 µL/min/mg | 16.6 µL/min/mg Protein
10 | CC[C@H](C)[C@H]1C(=O)N(C)[C@@H]([C@@H](C)O)C(=O)N(C)[C@@H](CC)C(=O)N(C)[C@@H](CC(C)C)C(=O)N2CCC[C@H]2C(=O)N[C@H](C(=O)N2CCCCC2)CC(=O)N(C)[C@@H](C)C(=O)N[C@@H](CC(C)C)C(=O)N(C)[C@@H](CC(C)C)C(=O)N(C)[C@@H](C)C(=O)N2CCC[C@H]2C(=O)N[C@@H](CCc2ccccc2)C(=O)N(C)[C@@H](CC(C)C)C(=O)N1C [pd125] ([NMeA]L[NMeL][NMeA]P[hPhe][NMeL][NMeI][NMeT][NMeAbu][NMeL]PD-Piperidide; lactam N-13) | 0.13 10^-6 cm/sec | 0.13 ×10⁻⁶ cm/s | 16.7 µL/min/mg | 18.1 µL/min/mg Protein

Source: patent EP4768499A1, “MACROCYCLIC PEPTIDE COMPOUND HAVING CELL MEMBRANE PERMEABILITY AND METABOLIC STABILITY, AND LIBRARY CONTAINING SAME” (Chugai Seiyaku Kabushiki Kaisha, priority 2023, dated 2025)
